Source: patent publication US8318976B2, “Salts, aqueous liquid compositions containing salts of S-(+)-abscisic acid and methods of their preparation” (Valent BioSciences Corporation, priority 2007, dated 2012)
Like-named read-outs stand apart in the source and are kept apart here.

Experiments:
[1] = system: California Blackeye Pea (cowpea); experiment: Phytotoxicity and growth after foliar application; format: in vivo; settings: for % Leaf Area Damaged 3 days after treatment: monofoliate leaves
Description: Phytotoxicity is defined as damage to a plant caused by treatment with an externally applied chemical substance. Phytotoxicity caused by application of an agricultural chemical is considered highly undesirable (except in the case of herbicides). To test the relative safety of the compositions of the present invention, comprising an ammonium salt of (S)-(+)-abscisic acid, as compared to compositions of the prior art, comprising an ammonium salt of (R,S)-(±)-abscisic acid, plants were treated with solutions containing two different concentrations of the (S)-(+)-abscisic acid or with solutions containing (R,S)-(±)-abscisic acid at concentrations in which either the total concentration of (R,S)-(±)-abscisic acid was equal to the higher concentration of (S)-(+)-abscisic acid or in which the concentration of (S)-(+)-abscisic acid contained in the (R,S)-(±)-abscisic acid was equal to the higher treatment concentration of the pure (S)-(+)-abscisic acid. California Blackeye Pea (cowpea) seed was planted into 18 cell flats filled with Promix PGX in a greenhouse. When the plants had grown to a point where the monofoliate leaves were fully expanded and the first trifoliate leaves were emerging (18 days after planting) the plants were sprayed with 1.5 ml of treatment solution. After treatment the plants were held in the greenhouse and evaluated for damage to the monofoliate leaves and also for growth of the trifoliate leaves. The percentage of the monofoliate leaf area that was damaged was estimated three days after treatment, and monofoliate leaf abscission and trifoliate leaf development were determined on the fifth day after treatment.

[2] = system: tomato leaf transpiration; experiment: Tomato leaf transpiration rate after foliar spray (LI-1600 porometer); format: in vivo, Tomato (variety: Rutgers); settings: for Transpiration rate (% of control), 3-Day Average: average of days 1-3; for Transpiration rate (% of control), Days after treatment 1: day 1; for Transpiration rate (% of control), Days after treatment 2: day 2; for Transpiration rate (% of control), Days after treatment 3: day 3
Description: Preparation of plant specimens for use in the treatment studies of the EXAMPLES that follow was carried out as follows. Tomato (variety: Rutgers) seeds were sown in an 18-cell flat filled with Promix PGX (available from Premier Horticulture Inc., Quakertown Pa.) and grown for 3 weeks to allow for germination and initial growth. Plants were then transplanted into pots (18 cm in diameter and 18 cm in height), filled with Promix BX (available from Premier Horticulture Inc., Quakertown Pa.), and grown for one or two more weeks before treatment, depending on temperature and available light. Plants received daily irrigation and weekly fertilizer (1 g/L all purpose fertilizer 20-20-20, available from The Scotts Company, Marysville, Ohio).
All treatment solutions were made up with distilled water. The (S)-(+)-abscisic acid (95% active ingredient) is available from Lomon BioTechnology Co., Ltd. (Shichuan, China). Twenty L of a 250 ppm solution of (S)-(+)-abscisic acid was prepared and stored in the dark at 20-25° C. This same 250-ppm (S)-(+)-abscisic acid solution was used as a control for all studies to eliminate the possibility of applying an incorrect concentration.
All experiments were conducted using a randomized complete block experimental design. Solutions of (S)-(+)-abscisic acid and blank treatments (plain water) were applied by spray to the aerial parts of the tomato plants at the rate of 20 mL per 6 plants. Plants were then placed in a transparent chamber with humidity controlled within the range of 40 to 60% relative humidity. Leaf transpiration rates were measured at 1, 2 and 3 days after treatment. Measurements were conducted using a LI-1600 Steady State Porometer (LI-Cor, Lincoln, Nebr.). Each day the transpiration rate of the plants of each treatment group was normalized to a percentage of the transpiration rate of untreated plants (plants sprayed with water only) in order to control for day-to-day variability in plant status caused by changes of environmental conditions such as light intensity and temperature. Data of each plant was also averaged over a 3-day period to balance the short term and long term effect of (S)-(+)-abscisic acid on tomato leaf transpiration as well as to reduce experimental variability.

[3] = literature reports; cited from earlier work
[4] = cited from earlier work; for highest concentration achievable in water: pure water, room / ordinary ambient temperature

With CC1=CC(=O)CC(C)(C)C1(O)/C=C/C(C)=C\C(=O)O.N (racemic) [(R,S)-(±)-abscisic acid ammonium salt] the “Average Number of Abscised Monofoliate Leaves 5 days after treatment” value ([1]; 6250 ppm foliar spray) was 1.7, the “Average Number of New Trifoliate Leaves 5 days after treatment” value ([1]; 6250 ppm foliar spray) was 0.0 and the “% Leaf Area Damaged 3 days after treatment” value ([1]; 6250 ppm foliar spray) was 97%. The “Average Number of Abscised Monofoliate Leaves 5 days after treatment” value ([1]; 12500 ppm foliar spray) was 2.0, the “Average Number of New Trifoliate Leaves 5 days after treatment” value ([1]; 12500 ppm foliar spray) was 0.0 and the “% Leaf Area Damaged 3 days after treatment” value ([1]; 12500 ppm foliar spray) was 100%. The “relative phytotoxicity, (S)-(+)- vs (R,S)-(±)-abscisic acid salt” value ([1]; equal total dose or equal (S)-(+)-enantiomer dose) was “more phytotoxicity”, the “Transpiration rate (% of control), 3-Day Average” value ([2]; Table 8, 250 ppm spray) was 90.95 % of control and the “Transpiration rate (% of control), Days after treatment 1” value ([2]; Table 8, 250 ppm spray) was 90.26 % of control. The “Transpiration rate (% of control), Days after treatment 2” value ([2]; Table 8, 250 ppm spray) was 87.73 % of control, the “Transpiration rate (% of control), Days after treatment 3” value ([2]; Table 8, 250 ppm spray) was 94.86 % of control and the “Transpiration rate (% of control), 3-Day Average” value ([2]; Table 8, 500 ppm spray) was 81.03 % of control. For the same compound, the “Transpiration rate (% of control), Days after treatment 1” value ([2]; Table 8, 500 ppm spray) was 77.53 % of control, the “Transpiration rate (% of control), Days after treatment 2” value ([2]; Table 8, 500 ppm spray) was 76.20 % of control and the “Transpiration rate (% of control), Days after treatment 3” value ([2]; Table 8, 500 ppm spray) was 89.36 % of control.
For CC1=CC(=O)CC(C)(C)[C@]1(O)/C=C/C(C)=C\C(=O)O [(R)-(−)-abscisic acid], the biological activity [3] is given as “biologically inactive”.
In the case of CC(C=C[C@@]1(O)C(C)=CC(=O)CC1(C)C)=CC(=O)O [(S)-(+)-2-trans-,4-trans-isomer], the biological activity [3] is listed as “biologically inactive”.
For CC1=CC(=O)CC(C)(C)[C@@]1(O)/C=C/C(C)=C\C(=O)O [(S)-(+)-abscisic acid, 2-cis-, 4-trans-(S)-(+)-abscisic acid], the “solubility in hard water” value ([4]; hard water, compared with pure water) is given as “even less”, the “solubility in propylene glycol” value ([4]; propylene glycol) is given as “poorly soluble” and the “highest concentration achievable in water” value [4] is given as ≤ 3000 ppm. For the same compound, the “highest concentration achievable in water” value ([4]; listed as abscisic acid) was “about 3000 ppm”, the “Transpiration rate (% of control), 3-Day Average” value ([2]; Table 1, 250 ppm spray) was 87.02 % of control and the “Transpiration rate (% of control), Days after treatment 1” value ([2]; Table 1, 250 ppm spray) was 75.59 % of control. For the same compound, the “Transpiration rate (% of control), Days after treatment 2” value ([2]; Table 1, 250 ppm spray) was 89.83 % of control, the “Transpiration rate (% of control), Days after treatment 3” value ([2]; Table 1, 250 ppm spray) was 95.63 % of control and the “Transpiration rate (% of control), 3-Day Average” value ([2]; Table 2, 250 ppm spray) was 87.02 % of control. For the same compound, the “Transpiration rate (% of control), Days after treatment 1” value ([2]; Table 2, 250 ppm spray) was 75.59 % of control, the “Transpiration rate (% of control), Days after treatment 2” value ([2]; Table 2, 250 ppm spray) was 89.83 % of control and the “Transpiration rate (% of control), Days after treatment 3” value ([2]; Table 2, 250 ppm spray) was 95.63 % of control. The “Transpiration rate (% of control), 3-Day Average” value ([2]; Table 3, 250 ppm spray) was 80.78 % of control, the “Transpiration rate (% of control), Days after treatment 1” value ([2]; Table 3, 250 ppm spray) was 72.66 % of control and the “Transpiration rate (% of control), Days after treatment 2” value ([2]; Table 3, 250 ppm spray) was 76.18 % of control. For the same compound, the “Transpiration rate (% of control), Days after treatment 3” value ([2]; Table 3, 250 ppm spray) was 93.50 % of control, the “Transpiration rate (% of control), 3-Day Average” value ([2]; Table 4, 250 ppm spray) was 83.21 % of control and the “Transpiration rate (% of control), Days after treatment 1” value ([2]; Table 4, 250 ppm spray) was 75.30 % of control. The “Transpiration rate (% of control), Days after treatment 2” value ([2]; Table 4, 250 ppm spray) was 83.65 % of control, the “Transpiration rate (% of control), Days after treatment 3” value ([2]; Table 4, 250 ppm spray) was 90.68 % of control and the “Transpiration rate (% of control), 3-Day Average” value ([2]; Table 5, 250 ppm spray) was 69.00 % of control. For the same compound, the “Transpiration rate (% of control), Days after treatment 1” value ([2]; Table 5, 250 ppm spray) was 59.35 % of control, the “Transpiration rate (% of control), Days after treatment 2” value ([2]; Table 5, 250 ppm spray) was 71.02 % of control and the “Transpiration rate (% of control), Days after treatment 3” value ([2]; Table 5, 250 ppm spray) was 76.62 % of control. For the same compound, the “Transpiration rate (% of control), 3-Day Average” value ([2]; Table 7, 250 ppm spray) was 78.21 % of control, the “Transpiration rate (% of control), Days after treatment 1” value ([2]; Table 7, 250 ppm spray) was 71.16 % of control and the “Transpiration rate (% of control), Days after treatment 2” value ([2]; Table 7, 250 ppm spray) was 75.23 % of control. The “Transpiration rate (% of control), Days after treatment 3” value ([2]; Table 7, 250 ppm spray) was 88.25 % of control, the “Transpiration rate (% of control), 3-Day Average” value ([2]; Table 8, 250 ppm spray) was 78.21 % of control and the “Transpiration rate (% of control), Days after treatment 1” value ([2]; Table 8, 250 ppm spray) was 71.16 % of control. The “Transpiration rate (% of control), Days after treatment 2” value ([2]; Table 8, 250 ppm spray) was 75.23 % of control and the “Transpiration rate (% of control), Days after treatment 3” value ([2]; Table 8, 250 ppm spray) was 88.25 % of control.
